Data: EP0120304A2, “Substituted 4,10-dihydro-10-oxothieno benzoxepins and intermediates thereof, a process for their preparation and their use as medicaments” (HOECHST-ROUSSEL PHARMACEUTICALS INCORPORATED, priority 1983, dated 1984)
Where two headings read alike, the source gives them in different places.

Experiments:
[1] = system: rat paw edema; test: carrageenin induced rat paw edema anti-inflammatory assay; assay type: in vivo; conditions: for ED50: Rattus norvegicus
[2] = system: 2-phenyl-1,4-benzoquinone-induced writhing; test: 2-phenyl-1,4-benzoquinone-induced writhing test (analgesia); assay type: in vivo, mice; conditions: for ED50: Mus musculus, po
Description: Compounds of the present invention are also useful as analgesic agents due to their ability to alleviate pain in mammals.

SMILES: CC(CO)c1ccc2c(c1)C(=O)c1sccc1CO2 (racemic) [(±)-2-(4,10-Dihydro-10-oxothieno[3,2-c][1]benzoxepin-8-yl)propanol]
- ED50 ([1]; 2 h, read-out: ED50 (mg/kg; 120 min.)): 4.3 mg/kg
- ED50 ([2]; Phenylquinone Writhing, read-out: ED50 (mg/kg; p.o.)): 4.3 mg/kg

SMILES: CC(C)Cc1ccc(C(C)C(=O)O)cc1 (stereo not shown) [ibuprofen, reference compound]
- ED50 ([2]; orally, in a similar test, read-out: analgesic ED50): 10.4 mg/kg

SMILES: CC(=O)OCCc1ccc2c(c1)C(=O)c1sccc1CO2 [2-(4,10-Dihydro-10-oxothieno[3,2-c][1]benzoxepin-8-yl) ethyl acetate]
- ED50 (mg/kg; 120 min.) [1]: 11.4 mg/kg

SMILES: O=C1c2cc(CCO)ccc2OCc2ccsc21 [(4,10-Dihydro-10-oxothieno[3,2-c][1]benzoxepin-8-yl) ethanol]
- ED50 (mg/kg; 120 min.) [1]: 34.2 mg/kg
- ED50 (mg/kg; p.o.) ([2]; p.o., Phenylquinone Writhing): 19.7 mg/kg

SMILES: COc1ccc2c(c1)c(CC(=O)O)c(C)n2C(=O)c1ccc(Cl)cc1 [indomethacin, reference compound]
- ED50 ([1]; po, read-out: anti-inflammatory ED50): 6 mg/kg
